Data published in patent US20070021351A1, “Liver/plasma concentration ratio for dosing hepatitis C virus protease inhibitor” (Schering Corporation, priority 2005, published 2007).

How the values were obtained:
[1] = tested on: HCV replicon (bicistronic subgenomic replicon, genotype 1b); assay: HCV replicon system, 72 hour assay in HuH-7 cells; format: cell-based
Text: Changes in replicon RNA level are compared to an internal control, such as cellular glyceraldehydes-3-phosphate dehydrogenas (GAPDH) messenger RNA levels, in a single-tube multiplex reaction. […] Therefore, it is contemplated that compound of Formula Ia administration to a subject in need thereof according to the present invention results in about a 0.5- to about 4.0-log decrease in viral load RNA levels, preferably about a 1.0- to about 3.0-log decrease in viral load RNA.
Replicon systems are well-established surrogates for viral replication as there is no HCV viral culture system. The HCV replicon is a non-infectious genotype 1b viral genome in which the sequences encoding the structural proteins at the 5′ end of the RNA have been replaced by a selectable marker, neoR.
NS3-mediated cleavage of the HCV polyprotein releases functional viral proteins essential for viral propagation. Therefore, blockage of NS3 protease activity by compound of Formula Ia is expected to inhibit viral replication in infected host cells.

[2] = tested on: HCV polyprotein processing; assay: Kinetic studies following polyprotein processing intermediates; format: cell-based
[3] = Pharmacokinetic parameter values on administration to a subject (summary); format: in vivo
Protocol: When the compounds are administered in fed subjects the bioavailability of the compound is increased about 100% and the mean Tmax of the compound of Formula Ia is increased about 60%.

[4] = Example 3: multiple-dose (14 days) pharmacokinetics in HCV positive subjects; format: in vivo, human
Protocol: Multiple escalating doses of compound of Formula Ia were administered for 14 days to HCV positive subjects who were genotype 1 Interferon-a (with or without ribavirin) non responders. In a randomized, placebo controlled, third party blind study, multiple doses of 100 mg BID, 200 mg BID, 400 mg BID, 400 mg TID, and 600 mg TID of compound of Formula Ia or placebo in a 3:1 ratio with or without food were evaluated.
• Group 1: Compound of Formula Ia 100 mg (2×50 mg) BID or matching placebo×14 days without food. • Group 2: Compound of Formula Ia 200 mg (2×100 mg) BID or matching placebo×14 days without food. • Group 3: Compound of Formula Ia 400 mg (4×100 mg) BID or matching placebo×14 days without food. • Group 4: Compound of Formula Ia 400 mg (4×100 mg) TID or matching placebo×14 days without food. • Group 5: Compound of Formula Ia 400 mg (4×100 mg) BID or matching placebo×14 days with food. • Group 6: Compound of Formula Ia 600 mg (6×100 mg) BID or matching placebo×14 days without food. • Group 7: Compound of Formula Ia 600 mg (6×100 mg) BID or matching placebo×14 days with food. • Group 8: compound of Formula Ia 600 mg (6×100 mg) TID or matching placebo×14 days without food. • Group 9: compound of Formula Ia intermediate dose or matching placebo×14 days with or without food.
Each subject was randomized to one treatment group. On Day 14, only the AM dose was administered.
For Cohorts Without Food: Treatments were administered on the morning (approximately 8 AM) of Days 1 and 14 following a 10 hour fast. Fasting continued until 4 hours postdose. Water was allowed during the fasting period. On the nonpharmacokinetic collection days (Days 2 through 13) breakfast and dinner were consumed either 90 minutes before or 90 minutes after each dose. All treatments were administered with approximately 240 mL of noncarbonated water. All doses on Days 1-14 were administered at approximately the same time each day, for cohorts with BID dosing study treatment were administered approximately 12 hours apart at 8 AM and 8 PM, and for cohorts with TID dosing study treatment were administered approximately 8 hours apart at 8 AM, 4 PM, and 12 Midnight.
For Cohorts With TID Dosing: All volunteers were dosed three times daily at approximately the same time each day; the doses were administered approximately 8 hours apart at 8 AM, 4 PM, and 12 Midnight.
For Cohorts With BID Dosing: All volunteers were dosed twice a day at approximately the same time each day. The doses were administered approximately 12 hours apart at 8 AM and 8 PM.
On Day 14, all subjects received only their assigned AM dose. During the dosing the capsule(s) were swallowed whole, not chewed or crushed. After dosing, the oral cavity was inspected to assure the volunteer had completely swallowed the capsule(s). […] Water was permitted throughout the fasting and nonfasting periods. […]
The plasma concentration data of compound of Formula Ia was used to estimate the following pharmacokinetic parameters: • Cmax—Maximum observed plasma concentration; • Tmax—Time of observed maximum plasma concentration; • AUC(O-t)—Area under the plasma concentration-time curve over the dosing interval • AUC (tf)—Area under the plasma concentration-time curve to the final quantifiable sample • CL/F—Apparent total body clearance. • t½—Terminal phase half life • Vd/F—Apparent volume of distribution • R—Accumulation ratio […]

[5] = human, plasma, oral, summary range, dose not stated

In the case of `CC(C)(C)NC(=O)N[C@H](C(=O)N1C[C@H]2[C@@H]([C@H]1C(=O)NC(CC1CCC1)C(=O)C(N)=O)C2(C)C)C(C)(C)C` (mixture of isomers) [Formula Ia, (1R,5S)-N-[3-Amino-1-(Cyclobutylmethyl)-2,3-Dioxopropyl]-3-[2(S)-[[[(1,1-Dimethylethyl)Amino]Carbonyl]Amino]-3,3-Dimethyl-1-Oxobutyl]-6,6-Dimethyl-3-Azabicyclo[3.1.0]Hexan-2(S)-Carboxamide], the IC50 ([1]; Hepatitis C virus, Huh-7, 72 h, read-out: IC50 for suppression of the HCV replicon) is reported as no more than 0.2 µM, the IC90 ([1]; Hepatitis C virus, Huh-7, 72 h, read-out: IC90 for suppression of the HCV replicon) is reported as no more than 0.4 µM and the “replicon RNA decrease compared with 6×IC90” value ([1]; exposure to 12×IC90 (5 μM)) is reported as “comparable results”. For the same compound, the “time until effects become evident” value [2] was “one”, the increase of bioavailability ([3]; fed subjects) was “about 100%” and the “increase of mean Tmax” value ([3]; fed subjects) was “about 60%”. For the same compound, the Cmax [3, 5] was 50 to 800 ng/mL, the Tmax [3, 5] was 1 to 5 h and the Vd/F [3, 5] was 1500 to 6000 L. For the same compound, the half-life [3, 5] was 2 to 15 h, the AUC(0-t) ([3]; human, plasma, oral, summary range, dose not stated, read-out: AUC(0-8 hr)) was 500 to 3000 ng·h/mL and the “mean accumulation ratio for BID dosing” value ([4]; BID dosing, 14 days) was 1. For the same compound, the Cmax ([4]; Day 14, 400 mg BID without food, mean, n=11) was 459 ng/mL, the “AUC(0-12 hr)” value ([4]; Day 14, 400 mg BID, mean, n=11) was 1644 ng·h/mL and the concentration at 11 day ([4]; human, plasma, multiple oral dosing, read-out: steady-state level (trough, Cmin)) was roughly 200 ng/mL. For the same compound, the “time at which steady-state levels were reached” value ([4]; trough data (Cmin)) was roughly 11 days.
